Experimental data as given in US20250381179A1, “CHROMAN-BASED COMPOUNDS FOR TREATING CANCER” (priority 2024, published 2025).

Assay: Phase 1 study: safety and tolerability (TEAEs, NCI CTCAE v5.0)
Protocol: The study employed an open-label, 3+3 design, with the option of adding backfill patients to each cohort cleared and deemed safe. […] Tumor responses were assessed every 2 cycles using RECIST v1.1 criteria. […] The study also involves an ongoing dose escalation study where participants receive 100 mg, 200 mg, 300 mg, 400 mg, and 600 mg once daily (QD) dose levels.
Safety was assessed through the analysis of the reported incidence of treatment-emergent AEs. Treatment-emergent AEs are those with an onset on or after the initiation of therapy and will be graded according to NCI CTCAE Version 5.0. Other safety endpoints, including laboratory results, vital signs, and ECG findings, were summarized for all patients in the Safety set.

## O=C1CC[C@H](N2Cc3cc(N4CCN(CC5CCN(c6ccc([C@@H]7c8ccc(O)cc8OC[C@@H]7c7ccccc7)cc6F)CC5)CC4)ccc3C2=O)C(=O)N1 [compound (1-g), (S)-3-(5-(4-((1-(2-fluoro-4-((3S,4R)-7-hydroxy-3-phenylchroman-4-yl)phenyl)piperidin-4-yl)methyl)piperazin-1-yl)-1-oxoisoindolin-2-yl)piperidine-2,6-dione]
100 mg QD (N = 4)
  Patients with Any Compound (1-g) related TEAE: 2 (50.0) n (%)
  Patients with Any TEAE: 4 (100) n (%)
  TEAE: Abdominal Distension: 0 n (%)
  TEAE: Abdominal Pain: 1 (25.0) n (%)
  TEAE: Acute Kidney Injury: 0 n (%)
  TEAE: Adrenal Insufficiency: 0 n (%)
  TEAE: Alopecia: 0 n (%)
  TEAE: Anaemia: 0 n (%)
  TEAE: Anxiety: 0 n (%)
  TEAE: Arthralgia: 0 n (%)
  TEAE: Axillary Vein Thrombosis: 0 n (%)
  TEAE: Back Pain: 0 n (%)
  TEAE: Basal Cell Carcinoma: 1 (25.0) n (%)
  TEAE: Breast Pain: 0 n (%)
  TEAE: Confusional State: 1 (25.0) n (%)
  TEAE: Constipation: 0 n (%)
  TEAE: Cough: 0 n (%)
  TEAE: Covid-19 Pneumonia: 1 (25.0) n (%)
  TEAE: Dehydration: 3 (75.0) n (%)
  TEAE: Diarrhoea: 1 (25.0) n (%)
  TEAE: Dizziness: 0 n (%)
  TEAE: Dysgeusia: 0 n (%)
  TEAE: Dyspepsia: 1 (25.0) n (%)
  TEAE: Dyspnoea: 0 n (%)
  TEAE: Dysuria: 0 n (%)
  TEAE: Eructation: 0 n (%)
  TEAE: Fall: 1 (25.0) n (%)
  TEAE: Fatigue: 1 (25.0) n (%)
  TEAE: Flatulence: 0 n (%)
  TEAE: Fracture: 0 n (%)
  TEAE: Fungal Infection: 0 n (%)
  TEAE: Haematoma: 0 n (%)
  TEAE: Hot Flush: 1 (25.0) n (%)
  TEAE: Hyperglycaemia: 0 n (%)
  TEAE: Hyperhidrosis: 1 (25.0) n (%)
  TEAE: Hypokalaemia: 0 n (%)
  TEAE: Hypotension: 0 n (%)
  TEAE: Influenza Like Illness: 0 n (%)
  TEAE: Insomnia: 1 (25.0) n (%)
  TEAE: Lower Respiratory Tract Congestion: 0 n (%)
  TEAE: Lymphocyte Count Decreased: 0 n (%)
  TEAE: Muscle Spasm: 0 n (%)
  TEAE: Muscular Weakness: 0 n (%)
  TEAE: Musculoskeletal Stiffness: 0 n (%)
  TEAE: Nail Disorder: 0 n (%)
  TEAE: Nasal Congestion: 0 n (%)
  TEAE: Nausea: 1 (25.0) n (%)
  TEAE: Neutrophil Count Decreased: 1 (25.0) n (%)
  TEAE: Oedema Peripheral: 0 n (%)
  TEAE: Ophthalmic Migraine: 0 n (%)
  TEAE: Oral Pain: 0 n (%)
  TEAE: Pain In Extremity: 0 n (%)
  TEAE: Pharyngitis: 0 n (%)
  TEAE: Platelet Count Decreased: 0 n (%)
  TEAE: Pleural Effusion: 0 n (%)
  TEAE: Pneumonia: 1 (25.0) n (%)
  TEAE: Productive Cough: 0 n (%)
  TEAE: Rash Maculo-Papular: 1 (25.0) n (%)
  TEAE: Rhinitis Allergic: 0 n (%)
  TEAE: Rib Fracture: 1 (25.0) n (%)
  TEAE: Seizure: 0 n (%)
  TEAE: Sepsis: 0 n (%)
  TEAE: Tremor: 1 (25.0) n (%)
  TEAE: Upper Respiratory Tract Infection: 1 (25.0) n (%)
  TEAE: Urinary Tract Infection: 0 n (%)
  TEAE: Vaginal Haemorrhage: 0 n (%)
  TEAE: Vomiting: 0 n (%)
  related TEAE: Alopecia: 0 n (%)
  related TEAE: Arthralgia: 0 n (%)
  related TEAE: Constipation: 0 n (%)
  related TEAE: Diarrhea: 1 (25.0) n (%)
  related TEAE: Dysgeusia: 0 n (%)
  related TEAE: Eructation: 0 n (%)
  related TEAE: Fatigue: 0 n (%)
  related TEAE: Flatulence: 0 n (%)
  related TEAE: Hot Flush: 1 (25.0) n (%)
  related TEAE: Hyperhidrosis: 0 n (%)
  related TEAE: Nail Disorder: 0 n (%)
  related TEAE: Nausea: 1 (25.0) n (%)
  related TEAE: Neutrophil Count Decreased: 1 (25.0) n (%)
  related TEAE: Platelet Count Decreased: 0 n (%)
  related TEAE: Tremor: 1 (25.0) n (%)
  related TEAE: Vomiting: 0 n (%)
200 mg QD (N = 12)
  Patients with Any Compound (1-g) related TEAE: 3 (25.0) n (%)
  Patients with Any TEAE: 11 (91.7) n (%)
  TEAE: Abdominal Distension: 0 n (%)
  TEAE: Abdominal Pain: 1 (8.3) n (%)
  TEAE: Acute Kidney Injury: 0 n (%)
  TEAE: Adrenal Insufficiency: 1 (8.3) n (%)
  TEAE: Alopecia: 0 n (%)
  TEAE: Anaemia: 1 (8.3) n (%)
  TEAE: Anxiety: 0 n (%)
  TEAE: Arthralgia: 2 (16.7) n (%)
  TEAE: Axillary Vein Thrombosis: 1 (8.3) n (%)
  TEAE: Back Pain: 1 (8.3) n (%)
  TEAE: Basal Cell Carcinoma: 0 n (%)
  TEAE: Breast Pain: 1 (8.3) n (%)
  TEAE: Confusional State: 0 n (%)
  TEAE: Constipation: 1 (8.3) n (%)
  TEAE: Cough: 1 (8.3) n (%)
  TEAE: Covid-19 Pneumonia: 0 n (%)
  TEAE: Dehydration: 1 (8.3) n (%)
  TEAE: Diarrhoea: 0 n (%)
  TEAE: Dizziness: 0 n (%)
  TEAE: Dysgeusia: 0 n (%)
  TEAE: Dyspepsia: 0 n (%)
  TEAE: Dyspnoea: 1 (8.3) n (%)
  TEAE: Dysuria: 1 (8.3) n (%)
  TEAE: Eructation: 0 n (%)
  TEAE: Fall: 1 (8.3) n (%)
  TEAE: Fatigue: 2 (16.7) n (%)
  TEAE: Flatulence: 0 n (%)
  TEAE: Fracture: 1 (8.3) n (%)
  TEAE: Fungal Infection: 0 n (%)
  TEAE: Haematoma: 0 n (%)
  TEAE: Hot Flush: 1 (8.3) n (%)
  TEAE: Hyperglycaemia: 1 (8.3) n (%)
  TEAE: Hyperhidrosis: 1 (8.3) n (%)
  TEAE: Hypokalaemia: 1 (8.3) n (%)
  TEAE: Hypotension: 0 n (%)
  TEAE: Influenza Like Illness: 1 (8.3) n (%)
  TEAE: Insomnia: 1 (8.3) n (%)
  TEAE: Lower Respiratory Tract Congestion: 1 (8.3) n (%)
  TEAE: Lymphocyte Count Decreased: 1 (8.3) n (%)
  TEAE: Muscle Spasm: 0 n (%)
  TEAE: Muscular Weakness: 1 (8.3) n (%)
  TEAE: Musculoskeletal Stiffness: 1 (8.3) n (%)
  TEAE: Nail Disorder: 0 n (%)
  TEAE: Nasal Congestion: 1 (8.3) n (%)
  TEAE: Nausea: 1 (8.3) n (%)
  TEAE: Neutrophil Count Decreased: 1 (8.3) n (%)
  TEAE: Oedema Peripheral: 0 n (%)
  TEAE: Ophthalmic Migraine: 1 (8.3) n (%)
  TEAE: Oral Pain: 0 n (%)
  TEAE: Pain In Extremity: 1 (8.3) n (%)
  TEAE: Pharyngitis: 1 (8.3) n (%)
  TEAE: Platelet Count Decreased: 0 n (%)
  TEAE: Pleural Effusion: 0 n (%)
  TEAE: Pneumonia: 1 (8.3) n (%)
  TEAE: Productive Cough: 1 (8.3) n (%)
  TEAE: Rash Maculo-Papular: 1 (8.3) n (%)
  TEAE: Rhinitis Allergic: 0 n (%)
  TEAE: Rib Fracture: 0 n (%)
  TEAE: Seizure: 1 (8.3) n (%)
  TEAE: Sepsis: 1 (8.3) n (%)
  TEAE: Tremor: 0 n (%)
  TEAE: Upper Respiratory Tract Infection: 1 (8.3) n (%)
